Data published in patent US20260183274A1, “PDK1 REGULATORY COMPOUND AND COMPOSITION CONTAINING THE SAME” (PROVIBIO CO., LTD., priority 2024, published 2026).

Test system: T cells isolated from mouse spleens
Assay: T cell proliferation inhibition (CFSE flow cytometry, anti-CD3/anti-CD28 stimulation)
Format: cell-based
Conditions: mouse spleen T cells, 3 days; for inhibition at 0.01 µM / inhibition at 0.1 µM / inhibition at 1 µM / inhibition at 10 µM / inhibition at 30 µM / inhibition at 50 µM: Mus musculus, T-cell, 72 h, read-out: Proliferation inhibition rate (%)
Description: To verify the T cell proliferation inhibitory effect of the compounds according to the present invention, the following experiment was performed based on flow cytometry analysis using carboxyfluorescein diacetate succinimidyl ester (CFSE), a fluorescent dye that binds to intracellular molecules via covalent bonds.
Spleens were extracted from 7-week-old C57BL/6 mice, ground, and then separated into single cells using a strainer (40 μm pore size, SPL). Red blood cells were removed using ACK (Ammonium-Chloride-Potassium) lysis buffer to isolate white blood cells.
Finally, using a MACS Magnetic Stand and LS column, T cells were isolated from the spleen.
The T cells isolated from the spleen were resuspended in 1 mL of free medium (RPMI-1640+200 U/mL penicillin+200 μg/mL streptomycin), and 0.3 μL of CFSE (10 mM) was added. The mixture was incubated at 37° C. for 5 minutes.
Free medium (10 mL) was added to stop the reaction, and the cells were centrifuged to obtain the cell pellet.
RPMI 1640 medium containing 10% FBS, 100 U/mL penicillin, 100 μg/mL streptomycin, and resuspended the cells. The cells were then seeded into a 96-well plate at a density of 2×10^5 cells per well and activated with CD3 and CD28 antibodies (0.5 μg/mL each) to activate T cells.
The compound diluted in DMSO was added at concentrations of 10 nM, 100 nM, 1 μM, 10 μM, 30 μM, and 50 μM, with three wells per concentration, and cultured at 37° C. and 5% CO2 for three days. The cells were then analyzed using a FACS Canto instrument.
The proliferation inhibition rate (%) was calculated using the following formula: […]

## Nc1ncccc1C(=O)NCCCCCCCCCCCCN1CCN(C=O)CC1 [Compound 97, 2-amino-N-(12-(4-formylpiperazin-1-yl)dodecyl) nicotinamide]
Compound 10 nM
  Proliferation inhibition rate (%): 3.51%
Compound 100 nM
  Proliferation inhibition rate (%): 40.64%
Compound 1 μM
  Proliferation inhibition rate (%): 100.00%
Compound 10 μM
  Proliferation inhibition rate (%): 100.00%
Compound 30 μM
  Proliferation inhibition rate (%): 100.00%
Compound 50 μM
  Proliferation inhibition rate (%): 100.00%

## CCNCCCCCCCCCCCCNC(=O)c1cccnc1N [Compound 98, 2-amino-N-(12-(ethylamino)dodecyl)nicotinamide]
Compound 10 nM
  inhibition at 0.01 µM: -4.82%
Compound 100 nM
  inhibition at 0.1 µM: -3.95%
Compound 1 μM
  inhibition at 1 µM: 100%
Compound 10 μM
  inhibition at 10 µM: 100%
Compound 30 μM
  inhibition at 30 µM: 100%
Compound 50 μM
  inhibition at 50 µM: 100%

## Nc1ncccc1C(=O)NCCCCCCCCCCCCN1CCN(C(=O)C2CC2)CC1 [Compound 99, 2-amino-N-(12-(4-(cyclopropanecarbonyl)piperazin-1-yl)dodecyl)nicotinamide]
Compound 10 nM
  inhibition at 0.01 µM: -12.1%
Compound 100 nM
  inhibition at 0.1 µM: 100%
Compound 1 μM
  inhibition at 1 µM: 100%
Compound 10 μM
  inhibition at 10 µM: 100%
Compound 30 μM
  inhibition at 30 µM: 100%
Compound 50 μM
  inhibition at 50 µM: 100%

## CC(C)(C)OC(=O)NC1CCN(CCCCCCCCCCCCNC(=O)c2cccnc2N)CC1 [Compound 101, tert-Butyl (1-(12-(2-aminonicotinamido)dodecyl)piperidin-4-yl) carbamate]
Compound 10 nM
  Proliferation inhibition rate (%): −0.15%
Compound 100 nM
  Proliferation inhibition rate (%): 100.00%
Compound 1 μM
  Proliferation inhibition rate (%): 100.00%
Compound 10 μM
  Proliferation inhibition rate (%): 100.00%
Compound 30 μM
  Proliferation inhibition rate (%): 100.00%
Compound 50 μM
  Proliferation inhibition rate (%): 100.00%

## CC1(C)CCN(CCCCCCCCCCCCNC(=O)c2cccnc2N)CC1 [Compound 102, 2-Amino-N-(12-(4,4-dimethylpiperidin-1-yl)dodecyl)nicotinamide]
Compound 10 nM
  inhibition at 0.01 µM: -4.53%
Compound 100 nM
  inhibition at 0.1 µM: 100%
Compound 1 μM
  inhibition at 1 µM: 100%
Compound 10 μM
  inhibition at 10 µM: 100%
Compound 30 μM
  inhibition at 30 µM: 100%
Compound 50 μM
  inhibition at 50 µM: 100%

## CCOC(=O)C1CCN(CCCCCCCCCCCCNC(=O)c2cccnc2N)CC1 [Compound 103, Ethyl 1-(12-(2-aminonicotinamido)dodecyl)piperidine-4-carboxylate]
Compound 10 nM
  inhibition at 0.01 µM: -6.43%
Compound 100 nM
  inhibition at 0.1 µM: 100%
Compound 1 μM
  inhibition at 1 µM: 100%
Compound 10 μM
  inhibition at 10 µM: 100%
Compound 30 μM
  inhibition at 30 µM: 100%
Compound 50 μM
  inhibition at 50 µM: 100%

## CC(C)N1CCN(CCCCCCCCCCCCNC(=O)c2cccnc2N)CC1 [Compound 104, 2-Amino-N-(12-(4-isopropylpiperazin-1-yl)dodecyl) nicotinamide]
Compound 10 nM
  Proliferation inhibition rate (%): 100.00%
Compound 100 nM
  Proliferation inhibition rate (%): 100.00%
Compound 1 μM
  Proliferation inhibition rate (%): 100.00%
Compound 10 μM
  Proliferation inhibition rate (%): 100.00%
Compound 30 μM
  Proliferation inhibition rate (%): 100.00%
Compound 50 μM
  Proliferation inhibition rate (%): 100.00%

## Cc1nn(CCCCCCCCCCCCNC(=O)c2cccnc2N)cc1Br [Compound 105, 2-Amino-N-(12-(4-bromo-3-methyl-1H-pyrazol-1-yl)dodecyl)nicotinamide]
Compound 10 nM
  inhibition at 0.01 µM: 6.73%
Compound 100 nM
  inhibition at 0.1 µM: 8.33%
Compound 1 μM
  inhibition at 1 µM: 38.9%
Compound 10 μM
  inhibition at 10 µM: 100%
Compound 30 μM
  inhibition at 30 µM: 100%
Compound 50 μM
  inhibition at 50 µM: 100%

## Nc1ncccc1C(=O)NCCCCCCCCCCCCn1ccc2ccc(I)cc21 [Compound 106, 2-Amino-N-(12-(6-iodo-1H-indol-1-yl)dodecyl)nicotinamide]
Compound 10 nM
  inhibition at 0.01 µM: 0.44%
Compound 100 nM
  inhibition at 0.1 µM: -1.9%
Compound 1 μM
  inhibition at 1 µM: 0.44%
Compound 10 μM
  inhibition at 10 µM: 100%
Compound 30 μM
  inhibition at 30 µM: 100%
Compound 50 μM
  inhibition at 50 µM: 100%

## Nc1ncccc1C(=O)NCCCCCCCCCCCCN1CCC(C(F)F)CC1 [Compound 107, 2-Amino-N-(12-(4-(difluoromethyl)piperidin-1-yl)dodecyl)nicotinamide]
Compound 10 nM
  inhibition at 0.01 µM: -35.2%
Compound 100 nM
  inhibition at 0.1 µM: 100%
Compound 1 μM
  inhibition at 1 µM: 100%
Compound 10 μM
  inhibition at 10 µM: 100%
Compound 30 μM
  inhibition at 30 µM: 100%
Compound 50 μM
  inhibition at 50 µM: 100%

## Nc1ncccc1C(=O)NCCCCCCCCCCCCN1CCC2(CC1)CC2 [Compound 108, N-(12-(6-Azaspiro[2.5]octan-6-yl)dodecyl)-2-aminonicotinamide]
Compound 10 nM
  inhibition at 0.01 µM: 0.88%
Compound 100 nM
  inhibition at 0.1 µM: 28.5%
Compound 1 μM
  inhibition at 1 µM: 100%
Compound 10 μM
  inhibition at 10 µM: 100%
Compound 30 μM
  inhibition at 30 µM: 100%
Compound 50 μM
  inhibition at 50 µM: 100%

## Nc1ncccc1C(=O)NCCCCCCCCCCCCn1ccc2c(Cl)c(I)cnc21 [Compound 109, 2-Amino-N-(12-(4-chloro-5-iodo-1H-pyrrolo[2,3-b]pyridin-1-yl)dodecyl)nicotinamide]
Compound 10 nM
  inhibition at 0.01 µM: 0.15%
Compound 100 nM
  inhibition at 0.1 µM: 8.48%
Compound 1 μM
  inhibition at 1 µM: 20.9%
Compound 10 μM
  inhibition at 10 µM: 100%
Compound 30 μM
  inhibition at 30 µM: 100%
Compound 50 μM
  inhibition at 50 µM: 100%

## C[C@@H]1CN(CCCCCCCCCCCCNC(=O)c2cccnc2N)C[C@H](C)O1 [Compound 110, 2-amino-N-(12-((2S,6R)-2,6-dimethylmorpholino)dodecyl)nicotinamide]
Compound 10 nM
  inhibition at 0.01 µM: -36.7%
Compound 100 nM
  inhibition at 0.1 µM: 100%
Compound 1 μM
  inhibition at 1 µM: 100%
Compound 10 μM
  inhibition at 10 µM: 100%
Compound 30 μM
  inhibition at 30 µM: 100%
Compound 50 μM
  inhibition at 50 µM: 100%

## CC(C)(C)OC(=O)N1CCN(CCCCCCCCCCCCNC(=O)c2cccnc2N)CC1 [Compound 111, tert-butyl-4-(12-(2-aminonicotinamido)dodecyl) piperazine-1-carboxylate]
Compound 10 nM
  Proliferation inhibition rate (%): 0.00%
Compound 100 nM
  Proliferation inhibition rate (%): 100.00%
Compound 1 μM
  Proliferation inhibition rate (%): 100.00%
Compound 10 μM
  Proliferation inhibition rate (%): 100.00%
Compound 30 μM
  Proliferation inhibition rate (%): 100.00%
Compound 50 μM
  Proliferation inhibition rate (%): 100.00%

## Nc1ncccc1C(=O)NCCCCCCCCCCCCN1CCN(CC2CCCCC2)CC1 [Compound 113, 2-amino-N-(12-(4-(cyclohexylmethyl)piperazin-1-yl)dodecyl)nicotinamide]
Compound 10 nM
  inhibition at 0.01 µM: 11.1%
Compound 100 nM
  inhibition at 0.1 µM: 100%
Compound 1 μM
  inhibition at 1 µM: 100%
Compound 10 μM
  inhibition at 10 µM: 100%
Compound 30 μM
  inhibition at 30 µM: 100%
Compound 50 μM
  inhibition at 50 µM: 100%

## Nc1ncccc1C(=O)NCCCCCCCCCCCCN1CCC(F)(F)CC1 [Compound 114, 2-amino-N-(12-(4,4-difluoropiperidin-1-yl)dodecyl)nicotinamide]
Compound 10 nM
  inhibition at 0.01 µM: -18.3%
Compound 100 nM
  inhibition at 0.1 µM: 26.2%
Compound 1 μM
  inhibition at 1 µM: 100%
Compound 10 μM
  inhibition at 10 µM: 100%
Compound 30 μM
  inhibition at 30 µM: 100%
Compound 50 μM
  inhibition at 50 µM: 100%

## Nc1ncccc1C(=O)NCCCCCCCCCCCCN1CCC(F)CC1 [Compound 115, 2-amino-N-(12-(4-fluoropiperidin-1-yl)dodecyl)nicotinamide]
Compound 10 nM
  inhibition at 0.01 µM: -11.4%
Compound 100 nM
  inhibition at 0.1 µM: 100%
Compound 1 μM
  inhibition at 1 µM: 100%
Compound 10 μM
  inhibition at 10 µM: 100%
Compound 30 μM
  inhibition at 30 µM: 100%
Compound 50 μM
  inhibition at 50 µM: 100%

## COC(=O)C1CCN(CCCCCCCCCCCCNC(=O)c2cccnc2N)C1 (stereo not drawn) [Compound 116, Methyl-1-(12-(2-aminonicotinamido)dodecyl) pyrrolidine-3-carboxylate]
Compound 10 nM
  Proliferation inhibition rate (%): −1.90%
Compound 100 nM
  Proliferation inhibition rate (%): 26.17%
Compound 1 μM
  Proliferation inhibition rate (%): 100.00%
Compound 10 μM
  Proliferation inhibition rate (%): 100.00%
Compound 30 μM
  Proliferation inhibition rate (%): 100.00%
Compound 50 μM
  Proliferation inhibition rate (%): 100.00%

## CC(C)(C)OC(=O)N[C@@H]1CCCN(CCCCCCCCCCCCNC(=O)c2cccnc2N)C1 [Compound 117, tert-butyl-(R)-(1-(12-(2-aminonicotinamido)dodecyl)piperidin-3-yl) carbamate]
Compound 10 nM
  Proliferation inhibition rate (%): −15.79%
Compound 100 nM
  Proliferation inhibition rate (%): 100.00%
Compound 1 μM
  Proliferation inhibition rate (%): 100.00%
Compound 10 μM
  Proliferation inhibition rate (%): 100.00%
Compound 30 μM
  Proliferation inhibition rate (%): 100.00%
Compound 50 μM
  Proliferation inhibition rate (%): 100.00%

## CN1CCN(CCCCCCCCCCCCNC(=O)c2cccnc2Cl)CC1 [Compound 118, 2-chloro-N-(12-(4-methylpiperazin-1-yl)dodecyl)nicotinamide]
Compound 10 nM
  inhibition at 0.01 µM: 4.24%
Compound 100 nM
  inhibition at 0.1 µM: 4.82%
Compound 1 μM
  inhibition at 1 µM: 12.6%
Compound 10 μM
  inhibition at 10 µM: 34.5%
Compound 30 μM
  inhibition at 30 µM: 88.6%
Compound 50 μM
  inhibition at 50 µM: 100%

## Nc1ncccc1C(=O)NCCCCCCCCCCCCN1CCOC1=O [Compound 127, 2-amino-N-(12-(2-oxooxazolidin-3-yl)dodecyl) nicotinamide]
Compound 10 nM
  Proliferation inhibition rate (%): −2.24%
Compound 100 nM
  Proliferation inhibition rate (%): 10.30%
Compound 1 μM
  Proliferation inhibition rate (%): 15.07%
Compound 10 μM
  Proliferation inhibition rate (%): 100.00%
Compound 30 μM
  Proliferation inhibition rate (%): 100.00%
Compound 50 μM
  Proliferation inhibition rate (%): 100.00%
